Measurements from the supplement of paper PMC10307832.

Columns and labels:
Experiment in all cases: relative viability (nuclei count vs DMSO), 5 days (fraction); higher = more cells survive
[1] = compound: C[As](C)SC[C@H](NC(=O)CC[C@H](N)C(=O)O)C(=O)NCC(=O)O [Darinaparsin] + Cc1cc(Nc2cc(N3CCN(C)CC3)nc(Sc3ccc(NC(=O)C4CC4)cc3)n2)n[nH]1 [Tozasertib] (partner 0.1 µM)
Method in brief: (§1)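 Lung cancer cell lines, seeded in 1536-well plates, were treated the following day by pin tool with a single drug or with five library-drug doses (not always all listed) in √10 steps on top of a fixed anchor-drug dose. Cells were fixed and nuclei stained in one step after 5 days, and nuclei were counted. Relative viability is the nuclei count for treated wells divided by that for vehicle wells, reported as medians of duplicate plates.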

[2] = compound: C[As](C)SC[C@H](NC(=O)CC[C@H](N)C(=O)O)C(=O)NCC(=O)O [Darinaparsin] + C[C@]1(O)C[C@@H](c2nc(-c3ccc4ccc(-c5ccccc5)nc4c3)c3c(N)nccn32)C1 [Linsitinib] (partner 1 µM)
Method in brief: as §1

AZ628 + Lapatinib = compound: CC1=C(C=C(C=C1)NC(=O)C2=CC(=CC=C2)C(C)(C)C#N)NC3=CC4=C(C=C3)N=CN(C4=O)C [AZ628] + CS(=O)(=O)CCNCc1ccc(-c2ccc3ncnc(Nc4ccc(OCc5cccc(F)c5)c(Cl)c4)c3c2)o1 [Lapatinib] (partner 2 µM)
Method in brief: as §1

QS11 + Crizotinib = compound: C1CC2=C(C1)C=C(C=C2)OC3=NC(=C4C(=N3)N(C=N4)CC5=CC=C(C=C5)C6=CC=CC=C6)N[C@@H](CC7=CC=CC=C7)CO [QS11] + C[C@@H](Oc1cc(-c2cnn(C3CCNCC3)c2)cnc1N)c1c(Cl)ccc(F)c1Cl [Crizotinib] (partner 1 µM)
Method in brief: as §1

Row | Cell Line | relative viability ([1]; first compound 0.08 µM) | relative viability ([1]; first compound 0.8 µM) | relative viability ([1]; first compound 2.53 µM) | relative viability ([1]; first compound 8 µM) | relative viability ([2]; first compound 0.08 µM) | relative viability ([2]; first compound 0.8 µM) | relative viability ([2]; first compound 2.53 µM) | relative viability ([2]; first compound 8 µM) | relative viability (AZ628 + Lapatinib; first compound 0.08 µM) | relative viability (AZ628 + Lapatinib; first compound 0.253 µM) | relative viability (AZ628 + Lapatinib; first compound 0.8 µM) | relative viability (AZ628 + Lapatinib; first compound 2.53 µM) | relative viability (AZ628 + Lapatinib; first compound 8 µM) | relative viability (QS11 + Crizotinib; first compound 0.08 µM) | relative viability (QS11 + Crizotinib; first compound 0.253 µM) | relative viability (QS11 + Crizotinib; first compound 0.8 µM) | relative viability (QS11 + Crizotinib; first compound 2.53 µM) | relative viability (QS11 + Crizotinib; first compound 8 µM)
1 | NCI-H23 | 0.372 | 0.333 | 0.348 | 0.754 | 0.661 | 0.635 | 0.482 | 0.685 | 1.18 | 0.958 | 0.698 | 0.722 | 0.528 | 0.473 | 0.462 | 0.473 | 0.385 | 0.44
2 | NCI-H2228 | 0.217 | 0.217 | 0.286 | 0.235 | 0.817 | 0.702 | 0.743 | 0.746 | 1.11 | 1.13 | 0.784 | 0.9 | 1.17 | 0.425 | 0.467 | 0.457 | 0.356 | 0.41
3 | NCI-H441 | 0.839 | 0.673 | 0.72 | 0.539 | 0.755 | 0.506 | 0.497 | 0.47 | – | – | – | – | – | 0.776 | 0.847 | 0.621 | 0.6 | 0.707
4 | NCI-H460 | 0.735 | 0.438 | 0.326 | 0.792 | 0.814 | 1.04 | 0.713 | 1.22 | 1.08 | 0.868 | 0.853 | 0.87 | 0.559 | 1.17 | 0.868 | 0.684 | 0.31 | 0.177
5 | LU99A | 0.262 | 0.295 | 0.256 | 0.243 | 0.618 | 0.633 | 0.475 | 0.581 | 0.973 | 0.966 | 1.11 | 0.943 | 0.573 | 0.554 | 0.586 | 0.544 | 0.446 | 0.385
6 | NCI-H358 | 0.1 | 0.102 | 0.124 | 0.101 | 0.753 | 0.601 | 0.665 | 0.68 | 0.446 | 0.422 | 0.404 | 0.432 | 0.339 | 0.723 | 0.525 | 0.457 | 0.402 | 0.379
7 | IA-LM | – | – | – | – | 0.949 | 0.8 | 0.533 | 0.681 | 0.881 | 0.831 | 0.315 | 0.373 | 0.2 | 0.697 | 0.94 | 0.675 | 0.693 | 0.712
8 | UMC-11 | 0.215 | 0.211 | 0.211 | 0.188 | 1.04 | 1.07 | 0.862 | 1.32 | 1.05 | 0.903 | 0.95 | 0.9 | 0.968 | 0.724 | 0.616 | 0.653 | 0.679 | 0.686
9 | LXF-289 | 0.204 | 0.195 | 0.204 | 0.229 | 0.986 | 0.995 | 0.796 | 1.04 | 0.882 | 0.884 | 0.79 | 0.843 | 0.58 | 0.814 | 0.807 | 0.678 | 0.687 | 0.617
